Source: PubChem BioAssay (NCI)
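Protocol summary: plate cells (96-well), add compound at 5 concentrations, incubate 48 h, interpolate endpoints linearly. The concentration for full growth arrest is given as TGI.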

Experiments:
Assay in all cases: growth of human tumour cells (NCI), 48 h
[1] = tested on: SW-620 colon
[2] = tested on: MDA-MB-231 breast
[3] = tested on: M14 melanoma
[4] = tested on: NCI-H460 lung
[5] = tested on: BT-549 breast
[6] = tested on: U251 CNS
[7] = tested on: MDA-N
[8] = tested on: NCI-H226 lung
[9] = tested on: HCT-116 colon
[10] = tested on: OVCAR-8 ovarian
[11] = tested on: PC-3 prostate
[12] = tested on: SF-295 CNS
[13] = tested on: SF-268 CNS
[14] = tested on: COLO 205 colon
[15] = tested on: NCI/ADR-RES ovarian
[16] = tested on: EKVX NSCLC
[17] = tested on: NCI-H23 lung
[18] = tested on: HOP-92 NSCLC
[19] = tested on: OVCAR-3 ovarian
[20] = tested on: SK-MEL-5 melanoma
[21] = tested on: OVCAR-4 ovarian
[22] = tested on: ACHN renal
[23] = tested on: DU-145 prostate
[24] = tested on: K-562 leukemia
[25] = tested on: OVCAR-5 ovarian
[26] = tested on: RPMI-8226 leukemia
[27] = tested on: LOX IMVI melanoma
[28] = tested on: MDA-MB-435
[29] = tested on: HOP-62 NSCLC
[30] = tested on: HCT-15 colon
[31] = tested on: 786-0 renal
[32] = tested on: UACC-257 melanoma
[33] = tested on: KM12 colon
[34] = tested on: UACC-62 melanoma
[35] = tested on: UO-31 renal
[36] = tested on: NCI-H522 lung
[37] = tested on: A498 renal
[38] = tested on: IGROV1 ovarian
[39] = tested on: SK-OV-3 ovarian
[40] = tested on: SK-MEL-2 melanoma
[41] = tested on: MCF7 breast
[42] = tested on: T-47D breast
[43] = tested on: TK-10 renal
[44] = tested on: MOLT-4 leukemia
[45] = tested on: HCC-2998 colon
[46] = tested on: SK-MEL-28 melanoma
[47] = tested on: HT29 colon
[48] = tested on: CAKI-1 renal
[49] = tested on: SN12C renal
[50] = tested on: SNB-75 CNS
[51] = tested on: A549 NSCLC
[52] = tested on: SNB-19 CNS
[53] = tested on: MALME-3M melanoma
[54] = tested on: CCRF-CEM leukemia
[55] = tested on: HL-60(TB) leukemia
[56] = tested on: RXF 393 renal
[57] = tested on: SR leukemia

CC(=O)OC1COC(n2nc(N)nc2C)C(OC(C)=O)C1OC(C)=O (stereo unspecified)
TGI [1]: > 100 µM
TGI [2]: > 100 µM
TGI [3]: > 100 µM
TGI [4]: > 100 µM
TGI [5]: > 100 µM
TGI [6]: > 100 µM
TGI [7]: > 100 µM
TGI [8]: > 100 µM
TGI [9]: > 100 µM
TGI [10]: > 100 µM
TGI [11]: > 100 µM
TGI [12]: > 100 µM
TGI [13]: > 100 µM
TGI [14]: > 100 µM
TGI [15]: > 100 µM
TGI [16]: > 100 µM
TGI [17]: > 100 µM
TGI [18]: > 100 µM
TGI [19]: > 100 µM
TGI [20]: > 100 µM
TGI [21]: > 100 µM
TGI [22]: > 100 µM
TGI [23]: > 100 µM
TGI [24]: > 100 µM
TGI [25]: > 100 µM
TGI [26]: > 100 µM
TGI [27]: > 100 µM
TGI [28]: > 100 µM
TGI [29]: > 100 µM
TGI [30]: > 100 µM
TGI [31]: > 100 µM
TGI [32]: > 100 µM
TGI [33]: > 100 µM
TGI [34]: > 100 µM
TGI [35]: > 100 µM
TGI [36]: > 100 µM
TGI [37]: > 100 µM
TGI [38]: > 100 µM
TGI [39]: > 100 µM
TGI [40]: > 100 µM
TGI [41]: > 100 µM
TGI [42]: > 100 µM
TGI [43]: > 100 µM
TGI [44]: > 100 µM
TGI [45]: > 100 µM
TGI [46]: > 100 µM
TGI [47]: > 100 µM
TGI [48]: > 100 µM
TGI [49]: > 100 µM
TGI [50]: > 100 µM
TGI [51]: > 100 µM
TGI [52]: > 100 µM
TGI [53]: > 100 µM
TGI [54]: > 100 µM
TGI [55]: > 100 µM
TGI [56]: > 100 µM

CO/C(=N\N=C\c1ccccc1F)c1ccncc1
TGI [1]: > 10 µM
TGI [2]: > 10 µM
TGI [3]: > 10 µM
TGI [4]: > 10 µM
TGI [5]: > 10 µM
TGI [6]: > 10 µM
TGI [7]: > 10 µM
TGI [8]: > 10 µM
TGI [9]: > 10 µM
TGI [10]: > 10 µM
TGI [11]: > 10 µM
TGI [12]: > 10 µM
TGI [13]: > 10 µM
TGI [14]: > 10 µM
TGI [15]: > 10 µM
TGI [16]: > 10 µM
TGI [17]: > 10 µM
TGI [18]: > 10 µM
TGI [19]: > 10 µM
TGI [21]: > 10 µM
TGI [22]: > 10 µM
TGI [23]: > 10 µM
TGI [24]: > 10 µM
TGI [25]: > 10 µM
TGI [26]: > 10 µM
TGI [27]: > 10 µM
TGI [28]: > 10 µM
TGI [29]: > 10 µM
TGI [30]: > 10 µM
TGI [31]: > 10 µM
TGI [32]: > 10 µM
TGI [33]: > 10 µM
TGI [35]: > 10 µM
TGI [36]: > 10 µM
TGI [40]: > 10 µM
TGI [41]: > 10 µM
TGI [42]: > 10 µM
TGI [43]: > 10 µM
TGI [44]: > 10 µM
TGI [45]: > 10 µM
TGI [47]: > 10 µM
TGI [48]: > 10 µM
TGI [49]: > 10 µM
TGI [57]: > 10 µM
TGI [51]: > 10 µM
TGI [52]: > 10 µM
TGI [53]: > 10 µM
TGI [54]: > 10 µM
TGI [55]: > 10 µM
TGI [56]: > 10 µM
